Test results: patent US12258327B2, “5-membered heteroaryl-containing aminopyridine compounds as EGFR inhibitors” (YUHAN CORPORATION, priority 2021, dated 2025)
Read-outs that look alike come from different tables or passages of the source.

Tests used:
EGFR del19/T790M/C797S = EGFR del19/T790M/C797S (Homo sapiens, UniProt P00533, C797S/DEL746-750/T790M); test: Biochemical EGFR kinase assay (Lance Ultra TR-FRET), triple mutant del19/T790M/C797S
Procedure: (§1) Biochemical EGFR kinase assays were conducted using Lance Ultra time-resolved fluorescence resonance energy transfer (TR-FRET) technology from Perkin-Elmer. Compounds of the invention were initially diluted to 20 mM in 100% DMSO for storage and made into kinase buffer solution to create a compound concentration ranging from 0.003 μM and 10 μM.
(§2) Each kinase reactions were incubated at room temperature for 1 hour and then stopped by the addition of 4 μL of stop solution (10 mM EDTA). The specific Europium-labeled-anti-phosphopeptide antibody (PerkinElmer, AD0069) diluted in LANCE detection buffer was then added to a final concentration of 2 nM. After 60 minutes incubation at room temperature the LANCE signal was measured on an EnVision Multilabel Reader (Perkin-Elmer). Excitation wavelength was set at 320 nm and emission monitored at 615 nm (donor) and 665 nm (acceptor). The IC50 values were determined using GraphPad prism software (GraphPad Software, Inc., San Diego, CA, USA).

EGFR L858R/T790M/C797S = EGFR L858R/T790M/C797S (Homo sapiens, UniProt P00533, C797S/L858R/T790M); test: Biochemical EGFR kinase assay (Lance Ultra TR-FRET), triple mutant L858R/T790M/C797S
EGFR L858R/T790M/C797S, sequence (P00533 25-1210 T790M/C797S/L858R): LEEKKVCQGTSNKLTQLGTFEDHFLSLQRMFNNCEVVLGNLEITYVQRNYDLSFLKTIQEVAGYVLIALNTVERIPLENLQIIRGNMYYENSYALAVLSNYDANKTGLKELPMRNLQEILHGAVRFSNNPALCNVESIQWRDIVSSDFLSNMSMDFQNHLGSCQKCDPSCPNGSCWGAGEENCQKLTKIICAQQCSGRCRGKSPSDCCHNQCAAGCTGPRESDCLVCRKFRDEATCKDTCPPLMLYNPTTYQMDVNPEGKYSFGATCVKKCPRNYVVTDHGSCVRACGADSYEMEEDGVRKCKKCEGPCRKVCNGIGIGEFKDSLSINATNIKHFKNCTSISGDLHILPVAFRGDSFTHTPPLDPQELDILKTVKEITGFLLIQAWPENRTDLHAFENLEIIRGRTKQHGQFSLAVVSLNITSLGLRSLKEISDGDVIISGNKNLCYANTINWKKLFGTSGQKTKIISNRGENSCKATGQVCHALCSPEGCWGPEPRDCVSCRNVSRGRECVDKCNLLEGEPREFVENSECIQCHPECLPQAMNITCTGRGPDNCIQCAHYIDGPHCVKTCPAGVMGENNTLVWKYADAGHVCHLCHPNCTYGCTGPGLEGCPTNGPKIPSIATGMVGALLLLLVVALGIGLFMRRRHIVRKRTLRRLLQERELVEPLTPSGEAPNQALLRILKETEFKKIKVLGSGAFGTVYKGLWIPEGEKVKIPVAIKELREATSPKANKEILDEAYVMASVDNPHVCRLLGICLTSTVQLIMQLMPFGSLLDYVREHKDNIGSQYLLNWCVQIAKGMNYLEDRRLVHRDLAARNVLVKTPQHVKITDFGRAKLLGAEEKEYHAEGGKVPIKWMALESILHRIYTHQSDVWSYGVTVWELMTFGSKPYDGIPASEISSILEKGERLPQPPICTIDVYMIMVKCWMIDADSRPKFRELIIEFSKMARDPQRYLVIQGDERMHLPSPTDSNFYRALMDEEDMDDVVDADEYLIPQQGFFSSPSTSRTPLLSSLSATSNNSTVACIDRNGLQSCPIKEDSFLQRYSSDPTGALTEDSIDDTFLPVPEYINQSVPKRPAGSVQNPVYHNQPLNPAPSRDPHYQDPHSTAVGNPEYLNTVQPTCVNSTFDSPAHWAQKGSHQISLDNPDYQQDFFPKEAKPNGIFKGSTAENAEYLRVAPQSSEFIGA
Procedure, shortened: (§3)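 Kinase activity is measured by TR-FRET phosphopeptide detection. Compounds span 0.003 μM to 10 μM; the 1 h reaction at room temperature is quenched with EDTA, then labelled antibody (2 nM) is incubated 60 min before reading.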

EGFR del19/C797S = EGFR del19/C797S (Homo sapiens, UniProt P00533, C797S/DEL746-750); test: Biochemical EGFR kinase assay (Lance Ultra TR-FRET), double mutant del19/C797S
Procedure: as §1, §2

EGFR L858R/C797S = EGFR L858R/C797S (Homo sapiens, UniProt P00533, C797S/L858R); test: Biochemical EGFR kinase assay (Lance Ultra TR-FRET), double mutant L858R/C797S
EGFR L858R/C797S, sequence (P00533 25-1210 C797S/L858R): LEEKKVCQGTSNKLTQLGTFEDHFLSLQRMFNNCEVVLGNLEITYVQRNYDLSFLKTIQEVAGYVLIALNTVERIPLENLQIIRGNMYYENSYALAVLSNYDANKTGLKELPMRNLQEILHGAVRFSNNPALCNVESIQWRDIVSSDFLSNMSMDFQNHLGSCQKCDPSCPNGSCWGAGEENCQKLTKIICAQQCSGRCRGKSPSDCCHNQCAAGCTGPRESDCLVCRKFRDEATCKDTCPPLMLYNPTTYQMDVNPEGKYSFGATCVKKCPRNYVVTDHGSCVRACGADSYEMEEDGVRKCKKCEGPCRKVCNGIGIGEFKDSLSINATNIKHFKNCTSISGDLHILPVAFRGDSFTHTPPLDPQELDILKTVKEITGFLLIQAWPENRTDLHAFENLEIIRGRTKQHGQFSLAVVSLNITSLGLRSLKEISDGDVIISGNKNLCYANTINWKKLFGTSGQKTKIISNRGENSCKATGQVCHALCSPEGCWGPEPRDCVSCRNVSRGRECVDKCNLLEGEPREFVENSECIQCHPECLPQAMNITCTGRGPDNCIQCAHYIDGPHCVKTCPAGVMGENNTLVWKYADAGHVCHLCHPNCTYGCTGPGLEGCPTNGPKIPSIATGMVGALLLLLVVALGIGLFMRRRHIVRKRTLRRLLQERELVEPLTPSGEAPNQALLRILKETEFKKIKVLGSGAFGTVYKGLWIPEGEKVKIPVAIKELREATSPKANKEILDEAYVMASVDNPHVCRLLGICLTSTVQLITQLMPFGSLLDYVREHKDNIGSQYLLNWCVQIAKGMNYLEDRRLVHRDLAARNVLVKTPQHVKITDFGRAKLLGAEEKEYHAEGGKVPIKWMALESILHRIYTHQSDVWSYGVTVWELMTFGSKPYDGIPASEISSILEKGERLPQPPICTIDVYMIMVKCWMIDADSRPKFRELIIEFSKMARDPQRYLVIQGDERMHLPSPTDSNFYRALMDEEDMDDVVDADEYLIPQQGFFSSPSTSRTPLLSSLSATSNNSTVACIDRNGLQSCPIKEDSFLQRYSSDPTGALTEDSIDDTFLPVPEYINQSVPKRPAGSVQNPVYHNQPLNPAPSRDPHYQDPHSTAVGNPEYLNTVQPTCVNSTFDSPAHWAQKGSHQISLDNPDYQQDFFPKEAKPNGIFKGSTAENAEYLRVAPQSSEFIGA
Procedure, shortened: as §3

EGFR wildtype (WT) = EGFR wildtype (WT) (Homo sapiens, UniProt P00533); test: Biochemical EGFR kinase assay (Lance Ultra TR-FRET), wildtype
EGFR wildtype (WT), sequence (P00533 25-1210): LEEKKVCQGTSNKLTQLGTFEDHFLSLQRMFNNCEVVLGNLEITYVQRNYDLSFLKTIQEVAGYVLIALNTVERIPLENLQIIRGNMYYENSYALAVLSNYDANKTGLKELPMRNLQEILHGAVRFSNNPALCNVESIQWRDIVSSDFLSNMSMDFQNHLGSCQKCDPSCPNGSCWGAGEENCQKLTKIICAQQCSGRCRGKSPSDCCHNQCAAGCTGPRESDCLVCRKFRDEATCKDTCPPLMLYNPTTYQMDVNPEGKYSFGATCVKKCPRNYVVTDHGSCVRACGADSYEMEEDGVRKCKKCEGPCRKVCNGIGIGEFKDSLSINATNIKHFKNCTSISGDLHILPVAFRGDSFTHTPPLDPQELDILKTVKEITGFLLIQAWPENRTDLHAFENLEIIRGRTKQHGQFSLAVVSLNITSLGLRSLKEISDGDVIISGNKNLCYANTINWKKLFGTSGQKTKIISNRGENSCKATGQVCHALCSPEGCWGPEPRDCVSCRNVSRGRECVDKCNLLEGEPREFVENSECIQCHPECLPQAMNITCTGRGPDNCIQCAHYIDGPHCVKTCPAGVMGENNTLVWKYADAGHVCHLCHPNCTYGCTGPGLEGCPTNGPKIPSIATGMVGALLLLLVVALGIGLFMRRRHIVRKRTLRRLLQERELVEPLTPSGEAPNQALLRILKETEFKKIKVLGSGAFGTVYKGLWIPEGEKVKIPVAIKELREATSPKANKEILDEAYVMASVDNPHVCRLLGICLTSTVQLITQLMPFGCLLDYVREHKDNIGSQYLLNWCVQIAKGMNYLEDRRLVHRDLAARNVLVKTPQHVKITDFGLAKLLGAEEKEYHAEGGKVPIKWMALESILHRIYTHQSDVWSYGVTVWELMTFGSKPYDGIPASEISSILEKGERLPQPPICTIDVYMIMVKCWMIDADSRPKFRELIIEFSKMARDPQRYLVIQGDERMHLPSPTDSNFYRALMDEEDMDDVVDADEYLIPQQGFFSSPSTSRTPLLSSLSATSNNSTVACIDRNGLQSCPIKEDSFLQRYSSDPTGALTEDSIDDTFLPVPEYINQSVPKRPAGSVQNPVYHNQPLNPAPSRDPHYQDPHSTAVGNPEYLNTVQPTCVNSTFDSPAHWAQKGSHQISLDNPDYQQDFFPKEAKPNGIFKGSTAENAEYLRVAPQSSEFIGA
Procedure, shortened: as §3

[1] = IC50 del19/T790M/C797S (nM) 100 μM ATP, 100 μM ATP
[2] = Km ATP, read-out: IC50 del19/T790M/C797S (nM) Km ATP
[3] = IC50 L858R/T790M/C797S (nM) 100 μM ATP, 100 μM ATP
[4] = Km ATP, read-out: IC50 L858R/T790M/C797S (nM) Km ATP
[5] = IC50 del19/C797S (nM) 100 μM ATP, 100 μM ATP
[6] = Km ATP, read-out: IC50 del19/C797S (nM) Km ATP
[7] = Km ATP, read-out: IC50 L858R/C797S (nM) Km ATP
[8] = IC50 WT (nM) 100 μM ATP, 100 μM ATP
[9] = Km ATP, read-out: IC50 WT (nM) Km ATP
[10] = IC50 L858R/C797S (nM) 100 μM ATP, 100 μM ATP

EGFR del19/T790M/C797S, sequence (P00533 with tags, fused parts or gaps DEL746-750/T790M/C797S): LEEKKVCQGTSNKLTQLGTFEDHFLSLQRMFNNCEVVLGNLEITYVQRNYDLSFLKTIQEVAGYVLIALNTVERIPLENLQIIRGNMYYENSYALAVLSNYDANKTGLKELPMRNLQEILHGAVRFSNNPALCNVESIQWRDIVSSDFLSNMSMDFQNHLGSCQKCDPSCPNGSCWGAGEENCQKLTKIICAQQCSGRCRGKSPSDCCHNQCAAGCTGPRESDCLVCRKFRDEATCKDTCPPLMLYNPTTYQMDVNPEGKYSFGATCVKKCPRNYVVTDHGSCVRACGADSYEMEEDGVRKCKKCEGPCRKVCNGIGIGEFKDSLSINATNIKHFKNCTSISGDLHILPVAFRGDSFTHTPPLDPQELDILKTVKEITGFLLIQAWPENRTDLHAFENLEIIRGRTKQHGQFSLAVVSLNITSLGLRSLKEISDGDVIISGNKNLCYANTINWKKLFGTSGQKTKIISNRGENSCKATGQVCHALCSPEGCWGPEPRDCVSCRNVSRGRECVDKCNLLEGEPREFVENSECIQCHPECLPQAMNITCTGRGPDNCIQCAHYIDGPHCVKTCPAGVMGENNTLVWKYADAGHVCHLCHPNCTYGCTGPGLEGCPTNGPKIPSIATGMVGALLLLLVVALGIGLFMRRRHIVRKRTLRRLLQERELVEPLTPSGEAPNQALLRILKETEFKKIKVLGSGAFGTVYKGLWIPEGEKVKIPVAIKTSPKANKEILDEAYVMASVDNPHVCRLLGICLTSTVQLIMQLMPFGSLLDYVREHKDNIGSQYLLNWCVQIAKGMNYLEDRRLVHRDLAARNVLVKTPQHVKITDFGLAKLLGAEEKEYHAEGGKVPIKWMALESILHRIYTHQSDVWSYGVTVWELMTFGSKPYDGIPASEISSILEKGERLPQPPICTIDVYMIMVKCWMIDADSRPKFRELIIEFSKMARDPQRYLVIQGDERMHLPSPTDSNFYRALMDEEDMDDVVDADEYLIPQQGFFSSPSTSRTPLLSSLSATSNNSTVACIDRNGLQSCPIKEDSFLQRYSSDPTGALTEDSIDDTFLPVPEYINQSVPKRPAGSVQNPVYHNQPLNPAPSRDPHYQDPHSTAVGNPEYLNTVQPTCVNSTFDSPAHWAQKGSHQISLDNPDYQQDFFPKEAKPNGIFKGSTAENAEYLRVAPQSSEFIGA

Structure (SMILES)	IC50 (EGFR del19/T790M/C797S; [1]) [nM]	IC50 (EGFR del19/T790M/C797S; [2]) [nM]	IC50 (EGFR L858R/T790M/C797S; [3]) [nM]	IC50 (EGFR L858R/T790M/C797S; [4]) [nM]	IC50 (EGFR del19/C797S; [5]) [nM]	IC50 (EGFR del19/C797S; [6]) [nM]	IC50 (EGFR L858R/C797S; [7]) [nM]	IC50 (EGFR wildtype (WT); [8]) [nM]	IC50 (EGFR wildtype (WT); [9]) [nM]	IC50 (EGFR del19/T790M/C797S; Km ATP, read-out: IC50 del19/T790M/C797S, Km ATP) [nM]	IC50 (EGFR L858R/T790M/C797S; Km ATP, read-out: IC50 L858R/T790M/C797S, Km ATP) [nM]	IC50 (EGFR del19/C797S; Km ATP, read-out: IC50 del19/C797S, Km ATP) [nM]	IC50 (EGFR L858R/C797S; Km ATP, read-out: IC50 L858R/C797S, Km ATP) [nM]	IC50 (EGFR wildtype (WT); Km ATP, read-out: IC50 WT, Km ATP) [nM]	IC50 (EGFR L858R/C797S; [10]) [nM]
CN(C)C[C@H]1CC[C@@H](Nc2cc(Nc3ccnc(-c4cnn(S(=O)(=O)C5CC5)c4)n3)ncc2-c2ccn(C)n2)CC1 [Example 226, N^2-(2-(1-(Cyclopropylsulfonyl)-1H-pyrazol-4-yl)pyrimidin-4-yl)-N^4-((1s,4s)-4-((dimethylamino)methyl)cyclohexyl)-5-(1-methyl-1H-pyrazol-3-yl)pyridine-2,4-diamine]	0.1	0.1	0.1	0.1	0.2	0.1	0.1	96.9	0.2	–	–	–	–	–	–
Cc1nn(CC(F)(F)F)cc1-c1nccc(Nc2cc(N[C@H]3CC[C@@](C)(O)CC3)c(-c3cc(C(F)(F)F)n(C)n3)cn2)n1 [Example 332, (1s,4s)-1-Methyl-4-((2-((2-(3-methyl-1-(2,2,2-trifluoroethyl)-1H-pyrazol-4-yl)pyrimidin-4-yl)amino)-5-(1-methyl-5-(trifluoromethyl)-1H-pyrazol-3-yl)pyridin-4-yl)amino)cyclohexan-1-ol]	–	–	–	–	–	–	–	–	–	5.9	3.2	10.1	6	98	–
Cn1ccc(-c2cnc(Nc3ccnc(-c4cnn(S(=O)(=O)C5CC5)c4)n3)cc2N[C@H]2CC[C@@H](NCC(F)F)CC2)n1 [Example 45, N^2-(2-(1-(Cyclopropylsulfonyl)-1H-pyrazol-4-yl)pyrimidin-4-yl)-N^4-((1s,4s)-4-((2,2-difluoroethyl)amino)cyclohexyl)-5-(1-methyl-1H-pyrazol-3-yl)pyridine-2,4-diamine]	0.2	0.6	0.2	0.2	0.4	0.6	0.7	918	2.2	–	–	–	–	–	2.8
CC(C)(O)[C@H]1CC[C@@H](Nc2cc(Nc3ccnc(-c4cnn(S(=O)(=O)C5CC5)c4)n3)ncc2-c2ccn(C(F)F)n2)CC1 [Example 8, 2-((1s,4s)-4-((2-((2-(1-(Cyclopropylsulfonyl)-1H-pyrazol-4-yl)pyrimidin-4-yl)amino)-5-(1-(difluoromethyl)-1H-pyrazol-3-yl)pyridin-4-yl)amino)cyclohexyl)propan-2-ol]	5.5	–	5.7	–	18.8	–	–	> 10000	–	–	–	–	–	–	21.9
O=C1CC[C@]2(CC[C@H](Nc3cc(Nc4ccnc(-c5cnn(S(=O)(=O)C6CC6)c5)n4)ncc3-c3csc(C(F)(F)F)n3)CC2)N1 [Example 52, (5s,8s)-8-((2-((2-(1-(Cyclopropylsulfonyl)-1H-pyrazol-4-yl)pyrimidin-4-yl)amino)-5-(2-(trifluoromethyl)thiazol-4-yl)pyridin-4-yl)amino)-1-azaspiro[4.5]decan-2-one]	0.6	0.6	0.6	0.4	0.8	1.3	1.6	> 10000	18	–	–	–	–	–	10
CN(C)C(=O)C[C@H]1CC[C@@H](Nc2cc(Nc3ccnc(-c4cnn(S(=O)(=O)C5CC5)c4)n3)ncc2-c2ccn(C(F)F)n2)CC1 [Example 205, 2-((1s,4s)-4-((2-((2-(1-(Cyclopropylsulfonyl)-1H-pyrazol-4-yl)pyrimidin-4-yl)amino)-5-(1-(difluoromethyl)-1H-pyrazol-3-yl)pyridin-4-yl)amino)cyclohexyl)-N,N-dimethylacetamide]	0.6	0.3	0.4	0.2	1	0.6	0.4	3960	4.4	–	–	–	–	–	10.1
CC1CC(Nc2cc(Nc3ccnc(-c4cnn(S(=O)(=O)C5CC5)c4)n3)ncc2-c2ccn(C(F)F)n2)CCC1O (centres unmarked) [Example 105, 4-((2-((2-(1-(Cyclopropylsulfonyl)-1H-pyrazol-4-yl)pyrimidin-4-yl)amino)-5-(1-(difluoromethyl)-1H-pyrazol-3-yl)pyridin-4-yl)amino)-2-methylcyclohexan-1-ol]	6.2	7.7	4.8	2.5	73	48.2	50.7	> 10000	73.2	–	–	–	–	–	1100
CC1(C)CC(Nc2cc(Nc3ccnc(-c4cnn(S(=O)(=O)C5CC5)c4)n3)ncc2-c2ccn(C(F)F)n2)CCC1O (centres unmarked) [Example 106, 4-((2-((2-(1-(Cyclopropylsulfonyl)-1H-pyrazol-4-yl)pyrimidin-4-yl)amino)-5-(1-(difluoromethyl)-1H-pyrazol-3-yl)pyridin-4-yl)amino)-2,2-dimethylcyclohexan-1-ol]	3.9	3.9	2.6	–	22.7	19.6	19	9960	46.9	–	–	–	–	–	453
O=S(=O)(C1CC1)n1cc(-c2nccc(Nc3cc(OC4CCC(O)CC4)c(-c4cnn(C(F)F)c4)cn3)n2)cn1 (centres unmarked) [Example 71, 4-((2-((2-(1-(Cyclopropylsulfonyl)-1H-pyrazol-4-yl)pyrimidin-4-yl)amino)-5-(1-(difluoromethyl)-1H-pyrazol-4-yl)pyridin-4-yl)oxy)cyclohexan-1-ol]	0.2	0.2	0.8	0.1	1.7	3.4	2.6	> 10000	26	–	–	–	–	–	42.3
O=S(=O)(C1CC1)n1cc(-c2nccc(Nc3cc(NC4CCC(F)(CO)CC4)c(-c4ccn(C(F)F)n4)cn3)n2)cn1 (centres unmarked) [Example 190, (4-((2-((2-(1-(Cyclopropylsulfonyl)-1H-pyrazol-4-yl)pyrimidin-4-yl)amino)-5-(1-(difluoromethyl)-1H-pyrazol-3-yl)pyridin-4-yl)amino)-1-fluorocyclohexyl)methanol]	1.2	0.9	1.8	0.6	11.9	9.1	6.7	> 10000	109	–	–	–	–	–	119
CC(C)(O)c1nc(-c2cnc(Nc3ccnc(-c4cnn(S(=O)(=O)C5CC5)c4)n3)cc2N[C@H]2CC[C@@](C)(O)CC2)cs1 [Example 93, (1s,4s)-4-((2-((2-(1-(Cyclopropylsulfonyl)-1H-pyrazol-4-yl)pyrimidin-4-yl)amino)-5-(2-(2-hydroxypropan-2-yl)thiazol-4-yl)pyridin-4-yl)amino)-1-methylcyclohexan-1-ol]	4	–	–	–	5.3	–	–	> 10000	–	–	–	–	–	–	15.7
